According to PMC3411647 (PLoS ONE, 2012):

What was measured:
H3R [1] = biological target: T1, H3R (Cavia porcellus, UniProt Q9JI35); experiment: Guinea-pig ileum bioassay, inhibition of electrically induced twitch
T1 construct: from tissue; host or cells: guinea-pig ileum segments
Protocol: Each point is the mean ± s.e.m. of three to six separate experiments.
The procedure used was as described previously. Adult male guinea pigs (300–500 g) were killed by cervical dislocation. The ileum was removed at a point 20 cm from the caecum and flushed with and placed in modified K–H buffer of following composition: 118 mM NaCl, 5.9 mM KCl, 1.2 mM CaCl2, 1.2 mM MgSO4, 1 mM Na2HPO4, 25 mM NaHCO3 and 10 mM D-glucose. Ileum segments (2.5–3 cm) were suspended in 20 ml organ baths containing K–H buffer maintained at 37°C and gassed with 95% O2/5% CO2. Contractile activity under stimulation (rectangular pulses of 15 V, 0.5 ms, and 0.1 Hz) was recorded using isometric transducers (Grass FTO3). […] Mepyramine ([…]) and famotidine ([…]) (Sigma-Aldrich, St. Louis, MO) were added to the K–H buffer to block postsynaptic H1 and presynaptic H2 receptors, respectively.

H3R [2] = biological target: T2, H3R (Homo sapiens, UniProt Q9Y5N1); experiment: H3R internalization, cell-surface ELISA in HEK-293 cells stably transfected with Flag-H3R; type: cell-based; settings: 100 µM, 45 min at 37°C
T2 construct: expressed in transfected cells
Protocol: ELISA data are expressed as the percentage of receptors detected on the surface of agonist-untreated cells expressing H3R. Error bars represent the SEM for four replicates.
The cell surface expression of H3R was quantitatively assessed by ELISA and performed as described previously. Briefly, HEK-293 cells stably transfected with the pCMV-H3R construct were seeded in 48-well dishes coated with poly-L-lysine. […] Medium was aspirated and the cells were washed once with Tris-buffered saline (TBS). […] Cells were then incubated for 1 h with an alkaline phosphatase-conjugated monoclonal antibody directed against the Flag epitope and diluted 1∶1,000. Cells were washed 3 times, and antibody binding was visualized by adding 0.25 mL of an alkaline phosphatase substrate (Bio-Rad). Development was stopped by adding 0.1 mL of the substrate to a 96-well microtiter plate containing 0.1 mL of 0.4 M NaOH.

H3R-EGFP = biological target: T3, H3R-EGFP (Homo sapiens, UniProt Q9Y5N1); experiment: Recycling of internalized H3R-EGFP to the cell surface, confocal microscopy; type: cell-based; settings: 20 µM ZEL-H16 or 500 µM histamine for 30 min, cycloheximide 100 µg/ml
T3 construct: expressed in transfected cells
Protocol: Figure 6 Localization of internalized H3R-EGFP stably expressed in HEK-293 cells and recycling of internalized H3R to the cell surface. […] All pictures shown are representative of at least three independent experiments.
HEK-293 cells stably expressing H3R-EGFP were seeded in covered glass-bottom 6-well plates. […] After fixing the cells with 4% paraformaldehyde for 10 min, cells were mounted in mounting reagent (DTT/PBS/glycerol). Confocal images were taken on a Zeiss LSM 510 microscope with an attached Axiovert 200 microscope and LSM5 computer system. Images were collected using QED camera software and processed with Adobe Photoshop.

rat brain H3R = biological target: T4, rat brain H3R (Rattus norvegicus, UniProt Q9QYN8); experiment: Competitive/saturation binding with [3H]N-α-methylhistamine, rat cerebral cortex membranes; settings: saturation binding, rat cerebral cortex
T4 construct: from tissue; host or cells: rat cerebral cortex membranes
Protocol: (§1) Figure 4 Competition binding experiments with [^3H]-N-α-methylhistamine. […] The presented data are the means ±SE of values from a single experiment performed in duplicate and are representative of three to six separate experiments.
(§2) The membranes (50 µg of protein) were incubated with [^3H] N-α-methylhistamine at various concentrations (from 0.03 nM to 50 nM) for saturation binding assays. For competitive binding assays, the membranes (50 µg of protein) were incubated with 10 nM [^3H] N-α-methylhistamine for recombinant hH3R or 2nM [^3H] N-α-methylhistamine for rat brain H3R in the presence of various compound concentrations in the buffer (50 mM Tris–HCl, pH 7.4). […] Following three washes, the membrane-bound radioactivity was measured on a Topcount (PerkinElmer) at 20°C. […] IC50 values were converted to Ki values using the Cheng-Prusoff equation. Each experiment was performed in duplicate and repeated three to six times. All data were analyzed by nonline arregression using GraphPad Prism version 4.0 software.

H3R [3] = biological target: T2, H3R; experiment: ERK1/2 phosphorylation (Western blot) in HEK-293 cells stably expressing H3R; type: cell-based
Protocol: Figure 7 Phosphorylation of ERK1/2 induced by ZEL-H16 in H3R-expressing HEK-293 cells. […] Signals were quantified by densitometric image analysis and p-ERK was normalized to a loading control (ERK). […] Concentration -dependent phosphorylation signals were quantified by densitometric analysis and p-ERK levels were normalized to total ERK levels. […] C, The phosphorylation of ERK1/2 induced by ZEL-H16 could be entirely abolished by co-incubation with H3R antagonist thioperamide (***p<0.001). Data represent the mean ±SE of three independent experiments.
HEK-293 cells stably expressing human H3R were grown in a 6-well plate and were serum starved 2 h in serum-free culture medium prior to stimulation. Cells were stimulated with the indicated H3R ligands at the designated concentrations. Incubations were stopped at the indicated times by removing the stimulation medium by aspiration. The cells were washed in ice-cold PBS and subsequently lysed in 100 µl of lysis buffer [20 mM HEPES (pH 7.5), 10 mM EDTA, 150 mM NaCl, 1% Triton X-100, and one tablet of complete protease inhibitor (Roche, Indianapolis, IN) per 50 mL] at 4°C on a rocker for 30 min. The lysates were centrifuged and separated by sodium dodecyl sulfate-polyacrylamide (12%) gel electrophoresis (SDS-PAGE) and blotted onto polyvinylidene difluoride membranes. Membranes were blocked for 1 h at room temperature in TBST (10 mmol/L Tris, 150 mmol/L NaCl, 0.1% Tween-20, pH 8.0) buffer containing 5% (v/w) skim milk. Membranes were probed overnight with primary antibodies against p-ERK1/2 (1∶1,000; Cell Signaling, Danvers, MA) in TBST containing 5% (v/w) BSA, and then probed with horseradish peroxidase-labeled secondary antibody (1∶5,000) for 1 h at room temperature in TBST containing 5% (v/w) milk powder. Immunoreactivity was detected by ECL assays. The blots were stripped and reprobed using antibodies against total ERK1/2 (1∶2,000) (Cell Signaling, Danvers, MA) as a control.

mouse H3R = biological target: T5, mouse H3R (Mus musculus, UniProt P58406); experiment: ERK1/2 phosphorylation in neonatal mouse cortical neuron cultures; type: cell-based
T5 construct: endogenous in cells; host or cells: primary cortical neurons of neonatal ICR mice
Protocol: Figure 8 Phosphorylation of ERK1/2 induced by ZEL-H16 in mouse cortical neurons. A, Time-dependent phosphorylation of ERK1/2 induced by 5 µM ZEL-H16 in neonatal mouse cortical neuron cultures. B, The phosphorylation of ERK1/2 induced by 50 µM ZEL-H16 for 20 min was mostly abolished by 100 ng/mL PTX or 10 µM thioperamide. Signals were quantified by densitometric image analysis and p-ERK was normalized to a loading control (ERK). The signal at each point is expressed as the percentage of the maximal p-ERK signal induced by ZEL-H16. Data represent the mean ±SE of three independent experiments.
Neuronal cortical cultures were prepared from neonatal ICR mice. Cerebral cortices were dissociated in sterile Dulbecco’s phosphate-buffered saline (D-PBS; Sigma-Aldrich, St. Louis, MO), and the neurons were isolated in the same medium containing 0.5% trypsin at 37°C for 10 min. After centrifugation, dissociated neurons were re-suspended in neurobasal medium (NBM; Gibco, Carlsbad, CA) supplemented with 2% B-27 and 0.5 mmol/L-glutamine (Gibco, Carlsbad, CA) and then plated on 48-well plates at a density of approximately 1.3×10^6 per well. After 7 days of culture, the neurons were serum starved for approximately 3 h prior to drug treatment. […]

histamine H4 receptor = settings: cited from earlier work
hH3R = biological target: T6, hH3R (Homo sapiens, UniProt Q9Y5N1); experiment: Saturation radioligand binding (Scatchard) of [3H]N-α-methylhistamine (0.03-50 nM) to membranes of HEK-293 cells expressing hH3R, 50 mM Tris-HCl pH 7.4, room temperature.
T6 construct: gene HRH3; recombinant, cDNA from human thalamus RNA (AF140538), stably expressed in HEK-293 cells; vectors pCMV-Flag and pEGFP-N1
Protocol: (§3) HEK-293 cells stably expressing H3R were harvested and resuspended in ice-cold 50 mM Tris-HCl (pH 7.4) containing a complete protease inhibitor cocktail tablet and mixed by inverting. The cell pellet was homogenized with a Polytron PT 1200 set at 4000 rpm and centrifuged at 1,000 g for 5 min. The supernatant was then centrifuged twice at 50,000 g for 30 min at 4°C. Finally, the resulting pellet was gently suspended in 50 mM Tris-HCl (pH 7.4) buffer and the membrane concentration was determined using Bio-Rad protein assays.
The membranes (50 µg of protein) were incubated with [^3H] N-α-methylhistamine at various concentrations (from 0.03 nM to 50 nM) for saturation binding assays. For competitive binding assays, the membranes (50 µg of protein) were incubated with 10 nM [^3H] N-α-methylhistamine for recombinant hH3R or 2nM [^3H] N-α-methylhistamine for rat brain H3R in the presence of various compound concentrations in the buffer (50 mM Tris–HCl, pH 7.4). The reaction mixtures were incubated for 90–120 min at room temperature to achieve binding equilibrium. Following three washes, the membrane-bound radioactivity was measured on a Topcount (PerkinElmer) at 20°C. […] IC50 values were converted to Ki values using the Cheng-Prusoff equation. […] All data were analyzed by nonline arregression using GraphPad Prism version 4.0 software.

[4] = biological target: T7, human histamine H3 receptor (Homo sapiens, UniProt Q9Y5N1); experiment: Competitive/saturation binding with [3H]N-α-methylhistamine, H3R/HEK-293 cell membranes
T7 construct: expressed in transfected cells
Protocol: as §1, §3, §2

T2 sequence (Q9Y5N1 whole entry): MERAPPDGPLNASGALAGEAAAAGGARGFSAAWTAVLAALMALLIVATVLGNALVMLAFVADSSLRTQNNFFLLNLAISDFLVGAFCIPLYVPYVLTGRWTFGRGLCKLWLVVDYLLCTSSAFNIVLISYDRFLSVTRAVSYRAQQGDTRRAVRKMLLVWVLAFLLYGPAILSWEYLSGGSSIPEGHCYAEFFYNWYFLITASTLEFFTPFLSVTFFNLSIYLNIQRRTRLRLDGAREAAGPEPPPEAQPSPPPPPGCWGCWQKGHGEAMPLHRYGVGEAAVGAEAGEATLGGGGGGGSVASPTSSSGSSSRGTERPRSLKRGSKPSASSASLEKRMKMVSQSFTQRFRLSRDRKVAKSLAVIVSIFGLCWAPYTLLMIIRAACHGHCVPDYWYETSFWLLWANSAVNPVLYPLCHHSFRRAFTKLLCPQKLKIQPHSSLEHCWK
T1 sequence (Q9JI35 whole entry): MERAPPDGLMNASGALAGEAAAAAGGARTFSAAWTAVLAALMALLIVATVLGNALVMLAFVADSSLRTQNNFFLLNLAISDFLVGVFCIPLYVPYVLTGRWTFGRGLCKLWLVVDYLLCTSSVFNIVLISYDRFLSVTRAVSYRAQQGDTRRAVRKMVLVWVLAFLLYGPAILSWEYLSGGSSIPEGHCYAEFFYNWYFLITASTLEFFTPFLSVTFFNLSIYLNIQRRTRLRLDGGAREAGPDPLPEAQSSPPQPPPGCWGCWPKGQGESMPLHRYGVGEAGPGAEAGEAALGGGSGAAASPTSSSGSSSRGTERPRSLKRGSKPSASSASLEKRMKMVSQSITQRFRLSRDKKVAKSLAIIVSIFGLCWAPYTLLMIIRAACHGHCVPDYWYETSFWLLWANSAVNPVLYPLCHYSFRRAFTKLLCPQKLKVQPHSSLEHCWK
T4 sequence (Q9QYN8 whole entry): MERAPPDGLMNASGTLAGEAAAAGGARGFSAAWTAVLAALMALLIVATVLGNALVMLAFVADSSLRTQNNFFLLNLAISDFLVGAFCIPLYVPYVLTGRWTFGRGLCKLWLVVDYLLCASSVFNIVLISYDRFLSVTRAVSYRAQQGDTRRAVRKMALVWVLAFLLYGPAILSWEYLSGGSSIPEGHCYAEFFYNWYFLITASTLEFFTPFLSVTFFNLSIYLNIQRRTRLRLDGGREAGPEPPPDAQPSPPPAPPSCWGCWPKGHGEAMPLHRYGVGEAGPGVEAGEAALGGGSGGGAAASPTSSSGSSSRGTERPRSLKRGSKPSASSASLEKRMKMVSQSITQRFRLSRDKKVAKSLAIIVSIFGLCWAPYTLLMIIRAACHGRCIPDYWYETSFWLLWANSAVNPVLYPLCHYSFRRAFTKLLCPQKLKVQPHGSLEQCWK
T3 sequence (Q9Y5N1 whole entry): as the sequence (Q9Y5N1 whole entry) above
T7 sequence (Q9Y5N1 whole entry): as above
T6 sequence (Q9Y5N1 whole entry): as above
T5 sequence (P58406 whole entry): as the sequence (Q9QYN8 whole entry) above, with T15A, A286T, A290G, R387H, I389V counted along it

## NCCc1c[nH]cn1 [histamine, reference compound]
H3R [1]; electrically induced twitch, mepyramine and famotidine present
  efficacy of inhibition of the contractions of the guinea pig ileum: 54.52±0.99%
H3R [1]; inhibition of electrically induced twitch, read-out: pD 2 (converted)
  EC50: 95500 pM
H3R [2]
  loss in the expression of the receptors on the cell surface (internalization): 18–20%
H3R-EGFP
  time for internalized H3R to recycle to the cell surface after agonist removal: ≤ 1 h

## CNCCc1cnc[nH]1 [[^3H]N-α-methylhistamine, reference compound]
Rat brain H3R
  Kd: 830 pM

## S=C(NC1CCCCC1)N1CCC(c2cnc[nH]2)CC1 [thioperamide]
H3R [3]
  effect on ERK1/2 phosphorylation induced by 50 µM ZEL-H16: completely abolished
Mouse H3R
  effect on ERK phosphorylation induced by 50 µM ZEL-H16 at 20 min: abolish most of the stimulatory effects

## c1nc(CC2CCNCC2)c[nH]1 [immepip, 4-(1H-imidazol-4-ylmethyl)piperidine]
Histamine H4 receptor
  pKi: 7.66

## CNCCc1c[nH]cn1 [[^3H]N-α-methylhistamine, [3H]N-alpha-methylhistamine]
hH3R
  Kd: 710 pM

## N=C(N)SCCc1c[nH]cn1 [imetit, S-[2-(4-imidazolyl)ethyl]isothiourea, reference compound]
H3R [2]
  loss in the expression of the receptors on the cell surface (internalization): 18–20%
[4]
  Ki: 900 ± 60 pM
